Test results: patent US20100209519A1, “PHARMACEUTICAL COMPOSITION FOR INHALATION DELIVERY AND FABRICATION METHOD THEREOF” (NATIONAL TAIWAN UNIVERSITY, priority 2009, published 2010)
Where two headings read alike, the source gives them in different places.

System: A549 cells
Assay: CDDP in vitro anticancer activity assay (MTT)
Type: cell-based, human
Procedure: A549 cells were placed in a 96-well culture plat at a density of 5×10^4 cells per well in 0.1 ml of growth medium and cultured for 24 hours. […] The percentage of cell viability is illustrated as the ratio of the absorbance of treated cells relative to the absorbance of non-treated cells.

IC50 (48 hours, read-out: IC50 Value, 48 hours): 13.6 µM
IC50 (72 hours, read-out: IC50 Value, 72 hours): 5.2 µM
Structure (SMILES): [NH2][Pt]([NH2])([Cl])[Cl] [CDDP, Cisplatin]
